From PMC11772155, “Solid-Phase-Supported Chemoenzymatic Synthesis and Analysis of Chondroitin Sulfate Proteoglycan Glycopeptides” (Angewandte Chemie (International ed. in English), 2024)
Like-named read-outs stand apart in the source and are kept apart here. Numbered stars: 1 amine (or outer) side, 2 acyl side, 3 side chain; on linkers, the order of the positions; unused ones are H or OH. Square brackets hold non-standard residues; d marks the D form. Peptide text beside a SMILES is read from it. * marks the point of attachment. X3 = CC(=O)N[C@H]1[C@H](O[C@H]2[C@H](O)[C@@H](O)[C@H](O[C@H]3[C@@H](O)[C@@H](CO)O[C@@H](O[C@H]4[C@H](O)[C@@H](O)[C@H](O[C@H]5[C@@H](O)[C@@H](CO)O[C@@H](O[C@H]6[C@H](O)[C@@H](O)[C@H](O[C@H]7[C@@H](O)[C@@H](CO)O[C@@H](O[C@H]8[C@H](O)[C@@H](O)[C@H](O[C@H]9[C@@H](O)[C@@H](CO)O[C@@H](O[C@H]%10[C@@H](O)[C@@H](CO)O[C@@H](O[C@@H]%11CO[C@@H](OC[C@H](N[*:1])C(=O)[*:2])[C@H](O)[C@H]%11O)[C@@H]%10O)[C@@H]9O)O[C@@H]8C(=O)O)[C@@H]7NC(C)=O)O[C@@H]6C(=O)O)[C@@H]5NC(C)=O)O[C@@H]4C(=O)O)[C@@H]3NC(C)=O)O[C@@H]2C(=O)O)O[C@H](CO)[C@H](O)[C@@H]1O[C@@H]1O[C@H](C(=O)O)[C@@H](O)[C@H](O)[C@H]1O; X2 = CC(=O)N[C@H]1[C@H](O[C@H]2[C@H](O)[C@@H](O)[C@H](O[C@H]3[C@@H](O)[C@@H](CO)O[C@@H](O[C@H]4[C@@H](O)[C@@H](CO)O[C@@H](O[C@@H]5CO[C@@H](OC[C@H](N[*:1])C(=O)[*:2])[C@H](O)[C@H]5O)[C@@H]4O)[C@@H]3O)O[C@@H]2C(=O)O)O[C@H](CO)[C@H](OS(=O)(=O)O)[C@@H]1O[C@@H]1O[C@H](C(=O)O)[C@@H](O[C@@H]2O[C@H](CO)[C@H](O)[C@H](O[C@@H]3O[C@H](C(=O)O)[C@@H](O)[C@H](O)[C@H]3O)[C@H]2NC(C)=O)[C@H](O)[C@H]1O; X4 = O=C(O)[C@H]1O[C@@H](O[C@H]2[C@@H](O)[C@@H](CO)O[C@@H](O[C@H]3[C@@H](O)[C@@H](CO)O[C@@H](O[C@@H]4CO[C@@H](*)[C@H](O)[C@H]4O)[C@@H]3O)[C@@H]2O)[C@H](O)[C@@H](O)[C@@H]1O

Biological target: T1, Human Neutrophil Cathepsin G (Homo sapiens, UniProt P08311)
T1 construct: Human Neutrophil Cathepsin G was purchased from Athens; purchased Athens Research & Technology, Inc. (Athens, Georgia)
T1 sequence (P08311 21-243 limits assumed): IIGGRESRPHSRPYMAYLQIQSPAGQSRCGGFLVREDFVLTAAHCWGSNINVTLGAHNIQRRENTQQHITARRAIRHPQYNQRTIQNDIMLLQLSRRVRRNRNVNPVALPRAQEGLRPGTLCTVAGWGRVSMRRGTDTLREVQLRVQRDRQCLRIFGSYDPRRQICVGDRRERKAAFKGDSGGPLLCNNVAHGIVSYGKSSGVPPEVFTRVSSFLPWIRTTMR
Test: BLI (biolayer interferometry) binding assay of immobilized biotinylated compounds with Cathepsin G
Excerpt: With structurally defined glycopeptides in hand, we aim to better understand the structural features needed for bikunin glycopeptide binding. Cathepsin G (CatG), a neutrophil serine protease, plays a crucial role in regulating various physiological processes, including inflammation, digestion, smooth muscle contraction, and tissue remodeling.[64] While CatG has been reported to interact with CSPG, the structural requirement of CSPG binding has not been established.[25] To measure the binding affinity towards CatG, peptides 5 and glycopeptides 10, 18–21 were biotinylated and immobilized on streptavidin coated sensors for biolayer interferometry (BLI) studies. Biotinylated 50 kDa CS and CS-A were also immobilized on the sensors for comparison. […]
General procedure of glycopeptide biotinylation
To a solution of peptide or glycopeptide in DMSO/H 2O (1/1, 0.1 ml) was added NHS-LC-Biotin (4 equiv.) and diisoproylethylamine (pH ~ 8.5). The reaction was incubated at 37 °C for 2 h. Then the mixture was dried in vacuo and purified by HPLC.
General procedure for BLI binding assay
The binding assay was performed on the Octet K2 System (Pall ForteBio). The biotinylated compounds were incubated with streptavidin (SA) sensors for 2 min. The sensor was then balanced in the assay buffer (PBS containing 0.005% P20) and dipped into Cathepsin G solution in assay buffer at 2000 nM, 1000 nM, 500 nM, 250 nM concentrations.
After 5 min of association, the sensor was brought back to the previous assay buffer for a 5 min dissociation step. At the end of the assay, the sensor was regenerated in 2 M NaCl to remove the bound protein. Each measurement was repeated 3 times on the same sensor. The control assay was performed with another sensor loaded with a 2 mM biotin solution.
Figure S3. Binding of peptide and glycopeptides a) 5, b) 10 , c) 18 , d) 19 , e) 20 , f) 21 , g) commercially available biotinylated 50 kDa CS, and h) 50 kDa CS-A to neutrophil Cathepsin G as measured by BLI ( a-h respectively). The biotinylated compounds (50 nM) were immobilized on streptavidin coated biosensors, and human neutrophil Cathepsin G was captured on biosensors with four concentrations at 2000 nM, 1000 nM, 500 nM, 250 nM.
Fitting curves were shown in red lines. […]

[1] = biotinylated compounds immobilized on streptavidin sensors, Cathepsin G at 2000, 1000, 500, 250 nM in PBS containing 0.005% P20, read-out: KD (nM) with Cathepsin G

`CC(C)C[C@H](NC(=O)[C@H](CCC(N)=O)NC(=O)CNC(=O)CNC(=O)CNC(=O)[C@H](CO[C@@H]1OC[C@@H](O[C@@H]2O[C@H](CO)[C@H](O)[C@H](O[C@@H]3O[C@H](CO)[C@H](O)[C@H](O[C@@H]4O[C@H](C(=O)O)[C@@H](O)[C@H](O)[C@H]4O)[C@H]3O)[C@H]2O)[C@H](O)[C@H]1O)NC(=O)CNC(=O)[C@H](CCC(=O)O)NC(=O)[C@H](CCC(=O)O)NC(=O)[C@H](CCC(=O)O)NC(=O)[C@H](CCC(N)=O)NC(=O)[C@@H]1CCCN1C(=O)[C@H](CC(C)C)NC(=O)[C@@H](NC(=O)[C@H](C)N)C(C)C)C(=O)N[C@H](C(=O)N[C@H](C(=O)N[C@@H](CCC(=O)O)C(=O)N[C@H](C(=O)N[C@H](C(=O)N[C@@H](CCCCN)C(=O)N[C@@H](CCCCN)C(=O)N[C@@H](CCC(=O)O)C(=O)N[C@@H](CC(=O)O)C(=O)N[C@@H](CO)C(=O)O)[C@@H](C)O)C(C)C)[C@@H](C)O)C(C)C` [Compound 10] (H-AVLPQEEEGS(X4)GGGQLVTEVTKKEDS-OH) gave a Kd [1] of 650 ± 80 nM.
Molecule `CC(=O)N[C@H]1[C@H](O[C@H]2[C@H](O)[C@@H](O)[C@H](O[C@H]3[C@@H](O)[C@@H](CO)O[C@@H](O[C@H]4[C@H](O)[C@@H](O)[C@H](O[C@H]5[C@@H](O)[C@@H](CO)O[C@@H](O[C@H]6[C@H](O)[C@@H](O)[C@H](O[C@H]7[C@@H](O)[C@@H](CO)O[C@@H](O[C@H]8[C@H](O)[C@@H](O)[C@H](O[C@H]9[C@@H](O)[C@@H](CO)O[C@@H](O[C@H]%10[C@@H](O)[C@@H](CO)O[C@@H](O[C@@H]%11CO[C@@H](OC[C@H](NC(=O)CNC(=O)[C@H](CCC(=O)O)NC(=O)[C@H](CCC(=O)O)NC(=O)[C@H](CCC(=O)O)NC(=O)[C@H](CCC(N)=O)NC(=O)[C@@H]%12CCCN%12C(=O)[C@H](CC(C)C)NC(=O)[C@@H](NC(=O)[C@H](C)N)C(C)C)C(=O)NCC(=O)NCC(=O)NCC(=O)N[C@@H](CCC(N)=O)C(=O)N[C@@H](CC(C)C)C(=O)N[C@H](C(=O)N[C@H](C(=O)N[C@@H](CCC(=O)O)C(=O)N[C@H](C(=O)N[C@H](C(=O)N[C@@H](CCCCN)C(=O)N[C@@H](CCCCN)C(=O)N[C@@H](CCC(=O)O)C(=O)N[C@@H](CC(=O)O)C(=O)N[C@@H](CO)C(=O)O)[C@@H](C)O)C(C)C)[C@@H](C)O)C(C)C)[C@H](O)[C@H]%11O)[C@@H]%10O)[C@@H]9O)O[C@@H]8C(=O)O)[C@@H]7NC(C)=O)O[C@@H]6C(=O)O)[C@@H]5NC(C)=O)O[C@@H]4C(=O)O)[C@@H]3NC(C)=O)O[C@@H]2C(=O)O)O[C@H](CO)[C@H](O)[C@@H]1O[C@@H]1O[C@H](C(=O)O)[C@@H](O)[C@H](O)[C@H]1O` [Compound 18] (H-AVLPQEEEG[X3]GGGQLVTEVTKKEDS-OH; N-terminus and C-terminus assumed) has a Kd [1] of 490 ± 18 nM.
Molecule `CC(=O)N[C@H]1[C@H](O[C@H]2[C@H](O)[C@@H](O)[C@H](O[C@H]3[C@@H](O)[C@@H](CO)O[C@@H](O[C@H]4[C@@H](O)[C@@H](CO)O[C@@H](O[C@@H]5CO[C@@H](OC[C@H](NC(=O)CNC(=O)[C@H](CCC(=O)O)NC(=O)[C@H](CCC(=O)O)NC(=O)[C@H](CCC(=O)O)NC(=O)[C@H](CCC(N)=O)NC(=O)[C@@H]6CCCN6C(=O)[C@H](CC(C)C)NC(=O)[C@@H](NC(=O)[C@H](C)N)C(C)C)C(=O)NCC(=O)NCC(=O)NCC(=O)N[C@@H](CCC(N)=O)C(=O)N[C@@H](CC(C)C)C(=O)N[C@H](C(=O)N[C@H](C(=O)N[C@@H](CCC(=O)O)C(=O)N[C@H](C(=O)N[C@H](C(=O)N[C@@H](CCCCN)C(=O)N[C@@H](CCCCN)C(=O)N[C@@H](CCC(=O)O)C(=O)N[C@@H](CC(=O)O)C(=O)N[C@@H](CO)C(=O)O)[C@@H](C)O)C(C)C)[C@@H](C)O)C(C)C)[C@H](O)[C@H]5O)[C@@H]4O)[C@@H]3O)O[C@@H]2C(=O)O)O[C@H](CO)[C@H](OS(=O)(=O)O)[C@@H]1O[C@@H]1O[C@H](C(=O)O)[C@@H](O[C@@H]2O[C@H](CO)[C@H](O)[C@H](O[C@@H]3O[C@H](C(=O)O)[C@@H](O)[C@H](O)[C@H]3O)[C@H]2NC(C)=O)[C@H](O)[C@H]1O` [Compound 19] (H-AVLPQEEEG[X2]GGGQLVTEVTKKEDS-OH; N-terminus and C-terminus assumed) has a Kd (read-out: KD (nM) with Cathepsin G, biotinylated compounds immobilized on streptavidin sensors, Cathepsin G at 2000, 1000, 500, 250 nM in PBS containing 0.005% P20) of 49 ± 5 nM.
